Test results taken from ChEMBL document CHEMBL3627608, “Crystal structures of human RIP2 kinase catalytic domain complexed with ATP-competitive inhibitors: Foundations for understanding inhibitor selectivity” (Bioorg Med Chem, 2015).

Tests used:
[1] = molecular target: T1, Serine/threonine-protein kinase D2 (Homo sapiens) (UniProt Q9BZL6); assay: Inhibition of PKD2 (unknown origin) at 10 uM after 120 mins P33 radiolabeled kinase activity assay
T1 sequence (whole entry): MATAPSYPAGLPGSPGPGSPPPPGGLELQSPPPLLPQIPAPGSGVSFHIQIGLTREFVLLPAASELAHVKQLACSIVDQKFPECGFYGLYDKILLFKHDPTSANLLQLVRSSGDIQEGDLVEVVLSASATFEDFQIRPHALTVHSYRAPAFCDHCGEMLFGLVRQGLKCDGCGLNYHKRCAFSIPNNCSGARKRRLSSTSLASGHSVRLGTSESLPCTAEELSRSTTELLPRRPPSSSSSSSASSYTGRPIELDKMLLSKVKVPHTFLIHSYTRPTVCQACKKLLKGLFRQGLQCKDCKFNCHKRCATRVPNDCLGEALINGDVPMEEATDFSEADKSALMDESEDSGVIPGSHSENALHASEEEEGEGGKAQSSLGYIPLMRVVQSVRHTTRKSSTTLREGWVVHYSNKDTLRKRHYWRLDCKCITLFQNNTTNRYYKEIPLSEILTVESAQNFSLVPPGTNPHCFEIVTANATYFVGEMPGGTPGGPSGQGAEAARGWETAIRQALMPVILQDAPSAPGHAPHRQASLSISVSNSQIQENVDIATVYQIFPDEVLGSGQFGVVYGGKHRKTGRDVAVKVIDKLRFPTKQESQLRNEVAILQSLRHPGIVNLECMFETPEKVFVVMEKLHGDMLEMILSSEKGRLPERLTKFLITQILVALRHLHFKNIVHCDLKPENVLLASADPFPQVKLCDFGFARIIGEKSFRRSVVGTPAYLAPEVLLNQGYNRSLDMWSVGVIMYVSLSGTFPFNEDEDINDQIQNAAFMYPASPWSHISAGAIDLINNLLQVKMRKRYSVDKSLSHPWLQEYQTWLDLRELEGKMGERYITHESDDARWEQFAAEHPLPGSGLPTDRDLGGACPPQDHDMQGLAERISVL

[2] = molecular target: Receptor-interacting serine/threonine-protein kinase 2 (Homo sapiens, UniProt O43353); assay: Inhibition of full-length FLAG-6His-TEV tagged human RIP2 expressed in Sf9 cells by fluorescent polarization assay
[3] = molecular target: T2, Ephrin type-B receptor 1 (Homo sapiens) (UniProt P54762); assay: Inhibition of EPHB1 (unknown origin) at 10 uM after 120 mins P33 radiolabeled kinase activity assay
T2 sequence (whole entry): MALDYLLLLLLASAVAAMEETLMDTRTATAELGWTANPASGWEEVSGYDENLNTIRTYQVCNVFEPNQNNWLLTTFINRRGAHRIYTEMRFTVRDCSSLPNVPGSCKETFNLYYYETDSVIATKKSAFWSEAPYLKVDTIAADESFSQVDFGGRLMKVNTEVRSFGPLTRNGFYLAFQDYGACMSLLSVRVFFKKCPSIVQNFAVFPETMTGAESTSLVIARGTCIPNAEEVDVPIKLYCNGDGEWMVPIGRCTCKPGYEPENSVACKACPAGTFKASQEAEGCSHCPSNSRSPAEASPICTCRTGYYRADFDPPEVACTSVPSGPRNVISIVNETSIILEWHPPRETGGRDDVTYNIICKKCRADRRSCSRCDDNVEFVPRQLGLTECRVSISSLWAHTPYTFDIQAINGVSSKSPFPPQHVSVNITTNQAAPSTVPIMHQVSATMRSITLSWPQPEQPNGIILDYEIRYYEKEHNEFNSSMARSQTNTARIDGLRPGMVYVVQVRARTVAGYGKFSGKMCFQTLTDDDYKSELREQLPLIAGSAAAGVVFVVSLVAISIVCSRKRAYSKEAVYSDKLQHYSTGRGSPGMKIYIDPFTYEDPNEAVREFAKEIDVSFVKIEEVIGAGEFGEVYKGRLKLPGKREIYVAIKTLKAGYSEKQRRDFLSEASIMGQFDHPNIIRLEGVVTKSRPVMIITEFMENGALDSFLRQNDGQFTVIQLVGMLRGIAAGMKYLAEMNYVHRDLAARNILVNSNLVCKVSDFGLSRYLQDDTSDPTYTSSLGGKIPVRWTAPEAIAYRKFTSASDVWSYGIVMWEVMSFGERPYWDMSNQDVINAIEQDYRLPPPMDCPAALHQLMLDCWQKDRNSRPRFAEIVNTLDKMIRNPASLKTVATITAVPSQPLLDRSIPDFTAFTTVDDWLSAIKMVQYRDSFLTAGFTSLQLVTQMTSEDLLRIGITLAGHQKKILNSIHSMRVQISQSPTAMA

[4] = molecular target: Serine/threonine-protein kinase 38-like (Homo sapiens) (UniProt Q9Y2H1); assay: Inhibition of STK38L (unknown origin) at 10 uM after 120 mins P33 radiolabeled kinase activity assay
[5] = molecular target: ALK tyrosine kinase receptor (Homo sapiens) (UniProt Q9UM73); assay: Inhibition of ALK (unknown origin) at 10 uM after 120 mins P33 radiolabeled kinase activity assay
[6] = molecular target: Ribosomal protein S6 kinase alpha-1 (Homo sapiens) (UniProt Q15418); assay: Inhibition of RSK1 (unknown origin) at 10 uM after 120 mins P33 radiolabeled kinase activity assay
[7] = molecular target: Receptor tyrosine-protein kinase erbB-4 (Homo sapiens) (UniProt Q15303); assay: Inhibition of ERBB4 (unknown origin) at 10 uM after 120 mins P33 radiolabeled kinase activity assay
[8] = molecular target: Serine/threonine-protein kinase N2 (Homo sapiens) (UniProt Q16513); assay: Inhibition of PKN2 (unknown origin) at 10 uM after 120 mins P33 radiolabeled kinase activity assay
[9] = molecular target: RAF proto-oncogene serine/threonine-protein kinase (Homo sapiens) (UniProt P04049); assay: Inhibition of RAF1 (unknown origin) at 10 uM after 120 mins P33 radiolabeled kinase activity assay
Sequence of RAF proto-oncogene serine/threonine-protein kinase (Homo sapiens) (P04049 whole entry): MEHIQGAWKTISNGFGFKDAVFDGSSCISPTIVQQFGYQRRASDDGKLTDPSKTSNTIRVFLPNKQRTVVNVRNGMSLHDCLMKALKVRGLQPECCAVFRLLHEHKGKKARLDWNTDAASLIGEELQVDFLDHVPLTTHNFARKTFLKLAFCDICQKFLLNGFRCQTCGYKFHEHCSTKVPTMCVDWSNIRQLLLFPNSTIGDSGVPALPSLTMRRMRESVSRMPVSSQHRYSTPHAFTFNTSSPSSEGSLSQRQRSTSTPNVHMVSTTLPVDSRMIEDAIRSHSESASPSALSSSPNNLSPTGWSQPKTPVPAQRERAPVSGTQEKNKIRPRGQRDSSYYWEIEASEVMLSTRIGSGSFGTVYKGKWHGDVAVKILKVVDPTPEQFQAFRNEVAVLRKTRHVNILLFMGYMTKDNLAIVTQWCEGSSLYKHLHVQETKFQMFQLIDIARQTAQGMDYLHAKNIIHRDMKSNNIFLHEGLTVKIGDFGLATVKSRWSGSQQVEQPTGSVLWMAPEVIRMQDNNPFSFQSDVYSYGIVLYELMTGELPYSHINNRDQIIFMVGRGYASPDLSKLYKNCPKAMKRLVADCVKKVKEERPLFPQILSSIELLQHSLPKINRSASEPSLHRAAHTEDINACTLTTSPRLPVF

Sequence of Receptor tyrosine-protein kinase erbB-4 (Homo sapiens) (Q15303 whole entry): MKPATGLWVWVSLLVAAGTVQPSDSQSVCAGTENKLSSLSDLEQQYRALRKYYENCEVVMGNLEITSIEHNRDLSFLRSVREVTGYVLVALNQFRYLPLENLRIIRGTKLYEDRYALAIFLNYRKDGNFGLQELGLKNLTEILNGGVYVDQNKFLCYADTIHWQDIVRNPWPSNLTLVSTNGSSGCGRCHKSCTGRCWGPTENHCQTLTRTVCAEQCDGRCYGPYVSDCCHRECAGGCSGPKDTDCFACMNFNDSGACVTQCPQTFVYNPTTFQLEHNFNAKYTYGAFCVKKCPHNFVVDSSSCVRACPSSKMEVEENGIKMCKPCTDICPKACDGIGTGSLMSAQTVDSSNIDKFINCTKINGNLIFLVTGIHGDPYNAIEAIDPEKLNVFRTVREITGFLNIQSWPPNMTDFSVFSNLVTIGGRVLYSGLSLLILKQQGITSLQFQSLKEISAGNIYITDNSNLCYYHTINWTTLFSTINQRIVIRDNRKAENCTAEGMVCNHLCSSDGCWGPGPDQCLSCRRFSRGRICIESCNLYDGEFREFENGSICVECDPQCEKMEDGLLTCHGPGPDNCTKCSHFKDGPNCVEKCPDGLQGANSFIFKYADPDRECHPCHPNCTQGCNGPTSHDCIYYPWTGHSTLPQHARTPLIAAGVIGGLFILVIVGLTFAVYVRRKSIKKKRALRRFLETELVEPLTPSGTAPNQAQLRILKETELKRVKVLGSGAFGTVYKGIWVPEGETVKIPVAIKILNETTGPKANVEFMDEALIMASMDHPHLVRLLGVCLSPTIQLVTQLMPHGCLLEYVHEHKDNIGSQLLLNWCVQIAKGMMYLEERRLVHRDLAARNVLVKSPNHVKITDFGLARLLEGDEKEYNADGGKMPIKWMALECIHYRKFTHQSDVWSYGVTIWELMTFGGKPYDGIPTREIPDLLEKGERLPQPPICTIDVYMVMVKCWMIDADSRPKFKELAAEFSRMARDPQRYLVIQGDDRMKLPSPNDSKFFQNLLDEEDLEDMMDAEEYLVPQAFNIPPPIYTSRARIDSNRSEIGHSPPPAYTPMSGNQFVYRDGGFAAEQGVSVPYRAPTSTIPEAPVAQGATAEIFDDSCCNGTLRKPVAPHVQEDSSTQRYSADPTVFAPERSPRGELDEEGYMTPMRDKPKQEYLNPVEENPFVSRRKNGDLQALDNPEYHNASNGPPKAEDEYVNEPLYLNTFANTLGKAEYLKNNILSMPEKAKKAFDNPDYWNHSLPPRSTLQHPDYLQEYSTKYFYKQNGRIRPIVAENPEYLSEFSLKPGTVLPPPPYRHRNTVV
Sequence of Serine/threonine-protein kinase 38-like (Homo sapiens) (Q9Y2H1 2-464 limits assumed): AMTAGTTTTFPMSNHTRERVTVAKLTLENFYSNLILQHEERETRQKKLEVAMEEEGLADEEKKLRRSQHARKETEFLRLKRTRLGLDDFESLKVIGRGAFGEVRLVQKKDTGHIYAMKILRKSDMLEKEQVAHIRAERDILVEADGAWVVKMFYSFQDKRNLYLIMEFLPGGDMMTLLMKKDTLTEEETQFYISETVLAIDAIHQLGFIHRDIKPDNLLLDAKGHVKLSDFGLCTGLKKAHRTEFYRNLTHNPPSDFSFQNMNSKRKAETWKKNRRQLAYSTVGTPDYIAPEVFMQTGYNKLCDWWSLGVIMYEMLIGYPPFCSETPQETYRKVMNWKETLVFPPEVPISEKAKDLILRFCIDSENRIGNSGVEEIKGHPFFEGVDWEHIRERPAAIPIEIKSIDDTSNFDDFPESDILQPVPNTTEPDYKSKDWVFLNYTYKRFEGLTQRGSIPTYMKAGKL
Sequence of Receptor-interacting serine/threonine-protein kinase 2 (O43353 whole entry): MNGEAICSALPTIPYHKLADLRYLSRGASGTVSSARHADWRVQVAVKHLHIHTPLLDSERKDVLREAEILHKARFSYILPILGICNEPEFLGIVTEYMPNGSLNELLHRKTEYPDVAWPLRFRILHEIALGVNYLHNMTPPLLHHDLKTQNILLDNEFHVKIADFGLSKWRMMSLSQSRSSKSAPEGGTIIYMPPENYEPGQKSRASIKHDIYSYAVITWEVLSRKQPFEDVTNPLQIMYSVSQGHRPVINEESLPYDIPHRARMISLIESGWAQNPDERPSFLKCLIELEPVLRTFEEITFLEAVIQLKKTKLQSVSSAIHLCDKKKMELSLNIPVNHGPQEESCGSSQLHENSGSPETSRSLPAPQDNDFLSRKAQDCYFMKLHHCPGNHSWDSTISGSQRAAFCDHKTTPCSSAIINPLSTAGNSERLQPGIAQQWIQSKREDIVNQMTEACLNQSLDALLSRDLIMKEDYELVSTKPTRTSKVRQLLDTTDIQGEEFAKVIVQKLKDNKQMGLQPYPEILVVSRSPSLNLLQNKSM
Sequence of ALK tyrosine kinase receptor (Homo sapiens) (Q9UM73 19-1620 limits assumed): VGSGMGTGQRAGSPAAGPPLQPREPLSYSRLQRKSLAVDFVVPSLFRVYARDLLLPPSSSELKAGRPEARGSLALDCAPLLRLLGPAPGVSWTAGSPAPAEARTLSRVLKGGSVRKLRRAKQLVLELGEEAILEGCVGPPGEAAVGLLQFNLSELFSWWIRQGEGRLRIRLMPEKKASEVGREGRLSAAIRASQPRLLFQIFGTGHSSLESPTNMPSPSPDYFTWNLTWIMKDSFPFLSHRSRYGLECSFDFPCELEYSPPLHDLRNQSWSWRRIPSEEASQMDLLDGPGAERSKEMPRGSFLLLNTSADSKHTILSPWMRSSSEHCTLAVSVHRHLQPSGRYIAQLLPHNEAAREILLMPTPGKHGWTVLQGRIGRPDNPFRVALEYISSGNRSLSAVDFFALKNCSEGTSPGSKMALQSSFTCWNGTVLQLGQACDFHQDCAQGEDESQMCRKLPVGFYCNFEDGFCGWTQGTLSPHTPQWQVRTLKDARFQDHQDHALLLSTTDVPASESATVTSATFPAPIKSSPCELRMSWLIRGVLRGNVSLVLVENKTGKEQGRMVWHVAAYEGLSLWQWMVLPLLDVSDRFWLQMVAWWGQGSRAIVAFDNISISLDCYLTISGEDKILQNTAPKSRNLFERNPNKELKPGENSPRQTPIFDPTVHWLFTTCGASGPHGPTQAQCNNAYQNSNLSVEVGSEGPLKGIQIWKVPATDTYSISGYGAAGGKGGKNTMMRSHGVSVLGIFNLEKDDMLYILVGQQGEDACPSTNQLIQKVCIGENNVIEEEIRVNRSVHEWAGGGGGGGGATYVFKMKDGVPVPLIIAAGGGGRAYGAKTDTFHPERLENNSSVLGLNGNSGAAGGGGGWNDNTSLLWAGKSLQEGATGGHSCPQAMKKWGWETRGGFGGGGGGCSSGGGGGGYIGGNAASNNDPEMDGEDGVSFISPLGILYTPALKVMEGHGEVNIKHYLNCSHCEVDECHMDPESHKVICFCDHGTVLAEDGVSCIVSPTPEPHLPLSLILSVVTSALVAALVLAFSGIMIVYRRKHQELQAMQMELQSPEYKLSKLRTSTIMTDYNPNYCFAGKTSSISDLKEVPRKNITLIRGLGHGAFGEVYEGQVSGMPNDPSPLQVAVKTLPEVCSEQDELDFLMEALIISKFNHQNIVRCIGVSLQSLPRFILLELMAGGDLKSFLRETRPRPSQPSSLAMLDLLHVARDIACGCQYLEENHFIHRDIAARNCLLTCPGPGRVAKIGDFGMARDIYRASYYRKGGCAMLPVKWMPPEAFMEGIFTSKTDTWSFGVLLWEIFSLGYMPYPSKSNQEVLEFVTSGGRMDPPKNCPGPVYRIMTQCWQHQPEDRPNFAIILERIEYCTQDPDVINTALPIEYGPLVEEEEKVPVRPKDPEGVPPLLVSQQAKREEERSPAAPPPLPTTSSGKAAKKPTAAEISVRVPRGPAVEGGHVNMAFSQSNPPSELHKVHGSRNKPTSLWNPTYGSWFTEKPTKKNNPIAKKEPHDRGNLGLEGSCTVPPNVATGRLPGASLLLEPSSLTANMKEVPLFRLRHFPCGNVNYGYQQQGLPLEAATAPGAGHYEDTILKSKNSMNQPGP

| inhibition [1] | IC50 [2] | inhibition [3] | inhibition [4] | inhibition [5] | inhibition [6] | inhibition [7] | inhibition [8] | inhibition [9] | Compound |
| --- | --- | --- | --- | --- | --- | --- | --- | --- | --- |
| 102% | 0.0079 µM | 78.7% | 22.4% | 6.1% | 73% | 98.5% | 26.8% | 100% | CS(=O)(=O)c1cccc(Nc2nccc(-c3sc(N4CCOCC4)nc3-c3cccc(NS(=O)(=O)c4c(F)cccc4F)c3)n2)c1 |
| 19.8% | 0.5 µM | 12.3% | 7.36% | 0.02% | 11.6% | 1.69% | 28% | 41.5% | COCCNC(=O)c1ccc2c(c1)nc(-c1cnc(-c3ccc(Cl)cc3)[nH]1)n2CCOC |
| 21.2% | 0.32 µM | 93.2% | 33.7% | 17.4% | 52% | -3.92% | 15.8% | 98.8% | CC(C)(C)c1cc(NC(=O)Nc2ccc(Oc3ccncc3)cc2)no1 |
